Peptide text beside a SMILES is read from it.
Key:
[1] = tested on: Toxin A-induced secretion in rabbit ileal loops; experiment: Rabbit ileal loops, toxin A-induced secretion (Example 3); format: in vivo, New Zealand white rabbits
From the text: Rabbit Ileal Loops: The animal experiment protocol was approved by the Animal Care and Use Committee at the University of Virginia. Eight New Zealand white rabbits weighing between 2.5-3 kg were used for this experiment. Each rabbit was fasted overnight. On the day of the experiment, the rabbits were anesthetized intramuscularly using a ketamine and xylazine solution in a 2:1 ratio. An intravenous line was placed in the ear vein of each rabbit for administration of the adenosine analog, ATL 370 (Adenosine Therapeutics) or a phosphate buffered saline placebo (PBS). Once anesthetized, a midline abdominal incision was made and the ileum was exposed. A measured amount of ileum was injected with 5 mL of PBS to flush any remaining fecal material. After the ileum was flushed, 10 loops of 2.5-5 cm each were ligated using double ties, with 0.5-1 cm of space between each loop.
Once the bowel was exposed and ligated, each rabbit received a 250 μL IV injection of PBS (Toxin A and Toxin A/Alanyl glutamine groups) or 1.5 ug/250 μL of ATL 370 (Toxin A/Adenosine and Toxin A/Adenosine/Alanyl-glutamine groups). An additional dose of either PBS or ATL 370 was administered 2 hours after the first dose for a total of 2 doses. Each dose was followed by a 250-500 μL heparin saline injection to prevent the IV from clotting.
A total of 79 loops were studied, of which 15 loops from 8 animals served as controls. Each of the control loops were injected intraluminally with 1 mL of a sterile PBS solution. The remaining 64 loops were injected intraluminally with 20 μg/500 μL of Toxin A (TechLab) and combined with either 500 μL PBS (Toxin A and Toxin A/Adenosine groups) or 500 μL of a […], 30 mM, 10 mM, or 3 mM alanyl-glutamine solution (Toxin A/Alanyl-glutamine and Toxin A/Adenosine/Alanyl-glutamine groups). The ileal loops were replaced intraperitoneally and the abdomimal incision was sutured. Sedation continued throughout the procedure and were euthanized after 4 hours.
Measurement of intestinal secretion: After 4 hours of incubation, the animals were euthanized and the ligated loops were immediately removed. The length of each loop was measured and incised and the intraluminal secretion was quantified. The volume to length ratio (V:L) was measured as milliliters per centimeter per loop. The gross description of intestinal fluid (serous, serosanguinous, hemorrhagic or purulent) was documented.

[2] = tested on: Toxin A-induced secretion in rabbit ileal loops; experiment: as above; format: in vivo, New Zealand white rabbits; remark: listed apart in the source
[3] = tested on: C. difficile toxin A-induced inflammation and secretion in rabbit ileal loops; format: in vivo, New Zealand white rabbits; settings: rabbit, in vivo
Experimental: Materials and Methods: New Zealand white rabbits weighing about 2 kg are fasted overnight. Under anesthesia with ketamine (60-80 mg/kg) and xylazine (5-10 mg/kg) administered intramuscularly, a midline abdominal incision is performed to expose the small bowel. After the ileum is flushed, four-cm loops are ligated using double ties with a 1 cm interval between loops. Each of the control loops is injected intraluminally with 1 mL solution of PBS with either C. difficile toxin A (toxin A) (Techlab, Blacksburg, Va.) at 10 μg/mL. Loops from another set of rabbits are treated with the adenosine A2A agonists, JMR 193 (ATL 193) (10 nM, 100 nM, or 1 uM doses) or ATL 146e ([…], 100 nM, 1 uM doses) immediately before the enterotoxin is administered. In addition a rabbit is treated with A2A agonist, ATL 313 (100 nM), alone and another rabbit treated with ATL 313 with alanyl-glutamine (25 mM). After 5 hours of incubation, the ligated small intestinal loops are removed. The length of each ligated ileal segment is measured and intraluminal fluid was quantified. Volume to length ratio, V/L (mL/cm), per loop is calculated. Samples of intestinal stained with hematoxylin-eosin and graded from 0 (none) to 4 (worst) based on the degree of mucosal disruption, increase in cellularity and intensity of vascular congestion.

[4] = tested on: Clostridium difficile toxin A-induced TNF-α production; experiment: Quantification of TNF-α by ELISA in ileal tissue; format: in vivo, mice; settings: ZM241385 + ATL 313 + TxA
Experimental: Mice were fasted overnight, but allowed access to water, and then anesthetized with ketamine and xylazine (60 and 5 mg/Kg intramuscularly, respectively). Through a midline laparotomy, one 4-cm ileal loop was ligated and injected with either 0.1 ml of PBS pH 7.4 (control) or buffer containing TxA (1-10 μg). The abdomen was closed, and the animals were allowed to regain consciousness. Three hours after administration of TxA, mice were sacrificed and the intestinal loops were removed. The loop length, weight, and fluid volume were recorded. A portion of the loop was frozen at −70° C. for measurement of myeloperoxidase (MPO) and ADA activities and TNF-α concentration. The remaining tissue was fixed in 10% formalin and embedded in paraffin, and sections were stained with hematoxylin and eosin for histological grading of ileal inflammation. Some mice were injected with ATL 313 ([…] final concentration) immediately followed by PBS or TxA (5 μg); another group was injected with ZM241385 (5 nM), the selective A2A AR antagonist, immediately followed by PBS or ATL 313 (5 nM)+TxA (5 μg) in the ileal loop. […]
Ileal tissue was harvested from animals in order to measure TNF-α concentration by enzyme-linked immunosorbent assay (ELISA). The results are expressed as pg/mL of TNF-α.

[5] = tested on: murine ileal loops injected with Clostridium difficile toxin A (TxA); experiment: TxA-induced enteritis in ligated murine ileal loops: loop weight and secretion volume; format: in vivo, mice
Experimental: For this study, 174 male Swiss mice, 25-30 g body weight, from the animal colony of the Federal University of Ceara were used. The animals received water and food ad libitum.
(§1) Mice were fasted overnight, but allowed access to water, and then anesthetized with ketamine and xylazine (60 and 5 mg/Kg intramuscularly, respectively). Through a midline laparotomy, one 4-cm ileal loop was ligated and injected with either 0.1 ml of PBS pH 7.4 (control) or buffer containing TxA (1-10 μg). The abdomen was closed, and the animals were allowed to regain consciousness. Three hours after administration of TxA, mice were sacrificed and the intestinal loops were removed. The loop length, weight, and fluid volume were recorded. A portion of the loop was frozen at −70° C. for measurement of myeloperoxidase (MPO) and ADA activities and TNF-α concentration. The remaining tissue was fixed in 10% formalin and embedded in paraffin, and sections were stained with hematoxylin and eosin for histological grading of ileal inflammation. Some mice were injected with ATL 313 ([…] final concentration) immediately followed by PBS or TxA (5 μg); another group was injected with ZM241385 (5 nM), the selective A2A AR antagonist, immediately followed by PBS or ATL 313 (5 nM)+TxA (5 μg) in the ileal loop. In another experiment, TxA (5 μg) was injected into the ileal loop, the abdomen was closed, and, 30 min later, the abdomen was reopened and ATL 313 (5 nM) administered.

[6] = tested on: Clostridium difficile toxin A (TxA)-induced histological alterations; experiment: Histological grading of ileal inflammation, murine ileal loops; format: in vivo, mice
Experimental: as §1
The severity of inflammation was scored in coded slides by a pathologist on a scale of 1 (mild) to 3 (severe) for epithelial damage, edema, and neutrophil infiltration.

[7] = ZM241385 5 nM + ATL 313 5 nM + TxA 5 μg

C[C@H](N)C(=O)N[C@@H](CCC(N)=O)C(=O)O [alanyl-glutamine] (H-Ala-Gln-OH)
V:L ratio ([1]; toxin A mixed with alanyl-glutamine 3 mM, intraluminal, 4 hours): 0.96 mL/cm
V:L ratio ([1]; toxin A mixed with alanyl-glutamine 10 mM, intraluminal, 4 hours): 0.84 mL/cm
V:L ratio ([1]; toxin A mixed with alanyl-glutamine 30 mM, intraluminal, 4 hours): 0.67 mL/cm
loops hemorrhagic, purulent, or a combination of the two ([1]; toxin A/alanyl-glutamine loops (11/15)): 73%
V:L ratio ([2]; toxin A mixed with alanyl-glutamine 100 mM, intraluminal, 4 hours): 0.44 mL/cm

CCNC(=O)C1OC(n2cnc3c(N)nc(C#CCC4CCC(COC(C)=O)CC4)nc32)C(O)C1O (stereo not drawn) [JMR 193, Acetic acid 4-{3-[6-amino-9-(5-ethylcarbamoyl-3,4-dihydroxy-tetrahydro-furan-2-yl)-9H-purin-2-yl]-prop-2-ynyl}-cyclohexylmethyl ester]
inflammation induced by toxin A (histology score 0 to 4) [3]: reduced
toxin A-induced secretion (volume to length ratio) [3]: not consistently ameliorated

CCNC(=O)C1OC(n2cnc3c(N)nc(C#CCC4CCC(C(=O)OC)CC4)nc32)C(O)C1O (stereo not drawn) [ATL 146e, 4-{3-[6-Amino-9-(5-ethylcarbamoyl-3,4-dihydroxy-tetrahydro-furan-2-yl)-9H-purin-2-yl]-prop-2-ynyl}-cyclohexanecarboxylic acid methyl ester]
inflammation induced by toxin A (histology score 0 to 4) [3]: reduced
toxin A-induced secretion (volume to length ratio) [3]: not consistently ameliorated

Nc1nc(NCCc2ccc(O)cc2)nc2nc(-c3ccco3)nn12 [ZM241385, 4-[2-(7-Amino-2-furan-2-yl-[1,2,4]triazolo[1,5-a][1,3,5]triazin-5-ylamino)-ethyl]-phenol, reference compound]
TNF-α production in ileal tissue [4]: blocked ATL313 action
secretion volume/ileal loop length ratio [5, 7]: significantly reversed the protective effect of ATL 313
weight/ileal loop length ratio [5, 7]: significantly reversed the protective effect of ATL 313
secretion volume/ileal loop length ([5]; ZM241385 alone, no TxA, PBS=1.25±1.25): 0.0 ± 0.0 µL/cm
weight/ileal loop length ([5]; ZM241385 alone, no TxA, PBS=34.5±3.2): 19.9 ± 0.9 mg/cm
median injury score ([6]; ZM241385 + ATL 313 + TxA, median, range): 2.5
median injury score ([6]; compound alone, no TxA, median(range)): 0(0-0)

Nc1nc(C#CCC2CCN(C(=O)Oc3ccc(Cl)cc3)CC2)nc2c1ncn2C1OC(C(=O)NC2CC2)C(O)C1O (stereo not drawn) [ATL 370, 4-{3-[6-Amino-9-(5-cyclopropylcarbamoyl-3,4-dihydroxy-tetrahydro-furan-2-yl)-9H-purin-2-yl]-prop-2-ynyl}-piperidine-1-carboxylic acid 4-chloro-phenyl ester]
V:L ratio ([1]; ATL 370 IV 1.5 ug x 2 doses + intraluminal toxin A only, n=8, p=0.35 vs toxin A): 0.44 mL/cm
V:L ratio ([1]; ATL 370 IV + toxin A + alanyl-glutamine 3 mM): 0.21 mL/cm
V:L ratio ([1]; ATL 370 IV + toxin A + alanyl-glutamine 10 mM): 0.20 mL/cm
V:L ratio ([1]; ATL 370 IV + toxin A + alanyl-glutamine 30 mM): 0.14 mL/cm
loops purulent ([1]; ATL 370 IV + toxin A + alanyl-glutamine, all doses (7/16)): 44%
number of hemorrhagic loops ([1]; ATL 370 IV + toxin A + alanyl-glutamine, all doses (16 loops)): one
loops either hemorrhagic or purulent ([1]; ATL 370 IV + toxin A only (10/16)): 63%
V:L ratio ([2]; ATL 370 IV + toxin A + alanyl-glutamine 100 mM, n=4, p<0.001 vs toxin A): 0.05 mL/cm

Reference: US20080312160A1, “METHOD OF TREATING ENTERITIS, […], AND DIARRHEA FROM C. DIFFICILE WITH AN A2A ADENOSINE RECEPTOR AGONIST” (priority 2007, published 2008)
